Source: patent US8552022B2, “Substituted cyclopropyl compounds, compositions containing such compounds and methods of treatment” (Merck Sharp & Dohme Corp., priority 2009, dated 2013)

Target: T1, GPR119 (UniProt Q8TDV5, S309L, species not given)
T1 sequence (Q8TDV5 1-335 S309L): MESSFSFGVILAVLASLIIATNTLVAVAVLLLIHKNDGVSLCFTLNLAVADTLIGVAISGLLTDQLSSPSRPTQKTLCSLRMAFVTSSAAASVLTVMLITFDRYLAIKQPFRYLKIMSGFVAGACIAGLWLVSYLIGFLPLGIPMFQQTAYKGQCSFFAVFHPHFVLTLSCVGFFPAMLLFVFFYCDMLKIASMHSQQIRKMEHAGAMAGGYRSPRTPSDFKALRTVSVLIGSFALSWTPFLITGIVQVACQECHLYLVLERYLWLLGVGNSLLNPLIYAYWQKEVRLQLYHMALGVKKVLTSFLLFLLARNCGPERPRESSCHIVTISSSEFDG
Assay: GPR119 signaling, cyclic AMP (cAMP) HTRF assay
Type: cell-based, human (S309L variant) or murine
Settings: CHO cells with Gα15 and murine GPR119 or HEK293 Flp-In cells with human GPR119 S309L, read-out: EC50 (agonist activation of GPR119, cAMP)
Source text: The title compound was synthesized using 2-{2-[1-(5-chloropyrimidin-2-yl)piperidin-4-yl]cyclopropyl}ethyl 4-methylbenzenesulfonate from step 1 of this example by a general procedure analogous that described in Example 59. LRMS calc: 424.9; obs: 425.01 (M+1). Measurement of GPR119Signaling Using a Cyclic AMP (cAMP) Homogenous Time Resolved Fluorescence (HTRF) Assay
Chinese hamster ovary (CHO) cell lines stably transfected with the permissive guanine nucleotide binding protein alpha 15 (Gα15) and murine GPR119 were maintained in DMEM media containing FBS, penicillin-streptomycin, puromycin, and G418 (geneticin). Alternatively, human embryonic kidney (HEK)293 Flp-In cells (Invitrogen, Carlsbad, Calif.) were stably transfected with a human SNP variant (S309L) of GPR119 and maintained in DMEM media containing FBS, penicillin-streptomycin, and hygromycin. Agonist activation of the GPR119 receptor was measured in receptor transfected cells described above, treated with compounds of this invention, using a commercial homogenous time resolved fluorescence (HTRF) kit for measurement of cAMP (CisBio, Bedford, Mass.). The assay was performed in 96-well half-volume plates (murine) or 384-well plates (human) following the manufacturers instructions. Briefly, suspended cells were incubated with a dose titration of test compound at room temperature for 60 min, lysed, and incubated with HTRF reagents for an additional 60 min. The plate was read using an Envision multilabel reader (Perkin Elmer) adjusted to read time resolved fluorescence and the cAMP concentrations were extrapolated from a cAMP calibration curve. […] The concentration of test compound required to stimulate a half-maximal response (EC50), and efficacy as compared to an internal agonist control, was determined from a sigmoidal 4-parameter curve fit of the resulting plot of normalized activity versus compound concentration.

Row | SMILES | EC50
1 | CC(=O)Nc1ccc(NCC[C@@H]2C[C@@H]2C2CCN(c3ncc(Cl)cn3)CC2)cn1 [Ex 55, N-{5-[(2-{(1S,2S)-2-[1-(5-chloropyrimidin-2-yl)piperidin-4-yl]cyclopropyl}ethyl)amino]pyridin-2-yl}acetamide] | < 10 nM
2 | Cc1nnnn1-c1ccc(NCC[C@@H]2C[C@@H]2C2CCN(c3ncc(Cl)cn3)CC2)cn1 [Ex 18, N-(2-{(1S,2S)-2-[1-(5-chloropyrimidin-2-yl)piperidin-4-yl]cyclopropyl}ethyl)-6-(5-methyl-1H-tetrazol-1-yl)pyridin-3-amine] | 10 to 50 nM
3 | Cc1cc(NCC[C@@H]2C[C@@H]2C2CCN(c3ncc(Cl)cn3)CC2)cc(C#N)n1 [Ex 22, 4-[(2-{(1S,2S)-2-[1-(5-chloropyrimidin-2-yl)piperidin-4-yl]cyclopropyl}ethyl)amino]-6-methylpyridine-2-carbonitrile] | < 10 nM
4 | Clc1cnc(N2CCC([C@H]3C[C@H]3CCNc3ccc(-n4cncn4)nc3)CC2)nc1 [Ex 14, N-(2-{(1S,2S)-2-[1-(5-chloropyrimidin-2-yl)piperidin-4-yl]cyclopropyl}ethyl)-6-(1H-1,2,4-triazol-1-yl)pyridin-3-amine] | < 10 nM
5 | Clc1cnc(N2CCC([C@H]3C[C@H]3CCNc3cnc(-n4cncn4)cn3)CC2)nc1 [Ex 23, N-(2-{(1S,2S)-2-[1-(5-chloropyrimidin-2-yl)piperidin-4-yl]cyclopropyl}ethyl)-5-(1H-1,2,4-triazol-1-yl)pyrazin-2-amine] | < 10 nM
6 | CC(=O)Nc1ccc(NCC[C@@H]2C[C@@H]2C2CCN(c3ncc(Cl)cn3)CC2)cc1 [Ex 52, N-{4-[(2-{(1S,2S)-2-[1-(5-chloropyrimidin-2-yl)piperidin-4-yl]cyclopropyl}ethyl)amino]phenyl}acetamide] | 10 to 50 nM
7 | CC(C)(C)C(=O)Nc1ccc(NCC[C@@H]2C[C@@H]2C2CCN(c3ncc(Cl)cn3)CC2)nc1 [Ex 30, N-{6-[(2-{(1S,2S)-2-[1-(5-chloropyrimidin-2-yl)piperidin-4-yl]cyclopropyl}ethyl)amino]pyridin-3-yl}-2,2-dimethyl propanamide] | < 10 nM
8 | Clc1cnc(N2CCC([C@H]3C[C@H]3CCNc3ccc(-n4cnnn4)nc3)CC2)nc1 [Ex 15, N-(2-{(1S,2S)-2-[1-(5-chloropyrimidin-2-yl)piperidin-4-yl]cyclopropyl}ethyl)-6-(1H-tetrazol-1-yl)pyridin-3-amine] | < 10 nM
9 | Clc1cnc(N2CCC([C@H]3C[C@H]3CCNc3ccc(-n4nccn4)nc3)CC2)nc1 [Ex 19, N-(2-{(1S,2S)-2-[1-(5-chloropyrimidin-2-yl)piperidin-4-yl]cyclopropyl}ethyl)-6-(2H-1,2,3-triazol-2-yl)pyridin-3-amine] | 10 to 50 nM
10 | Cc1n[nH]c2ccc(NCC[C@@H]3C[C@@H]3C3CCN(c4ncc(Cl)cn4)CC3)cc12 [Ex 47, N-(2-{(1S,2S)-2-[1-(5-chloropyrimidin-2-yl)piperidin-4-yl]cyclopropyl}ethyl)-3-methyl-1H-indazol-5-amine] | < 10 nM
11 | CS(=O)(=O)c1ccc(NCC[C@@H]2C[C@@H]2C2CCN(c3ncc(Cl)cn3)CC2)nc1 [Ex 6, N-(2-{(1S,2S)-2-[1-(5-chloropyrimidin-2-yl)piperidin-4-yl]cyclopropyl}ethyl)-5-(methylsulfonyl)pyridin-2-amine] | 10 to 50 nM
12 | Clc1cnc(N2CCC(C3CC3CCNc3ccc(-n4cncn4)nc3)CC2)nc1 (single isomer, unassigned) [Ex 59, trans-N-(2-{2-[1-(5-chloropyrimidin-2-yl)piperidin-4-yl]cyclopropyl}ethyl)-6-1H-1,2,4-triazol-1-yl)pyridin-3-amine] | 10 to 50 nM
13 | CC1(C(=O)Nc2ccc(NCC[C@@H]3C[C@@H]3C3CCN(c4ncc(Cl)cn4)CC3)cn2)CC1 [Ex 38, N-{5-[(2-{(1S,2S)-2-[1-(5-chloropyrimidin-2-yl)piperidin-4-yl]cyclopropyl}ethyl)amino]pyridin-2-yl}-1-methylcyclopropane carboxamide] | < 10 nM
14 | Cn1ncc2cc(NCC[C@@H]3C[C@@H]3C3CCN(c4ncc(Cl)cn4)CC3)ccc21 [Ex 48, N-(2-{(1S,2S)-2-[1-(5-chloropyrimidin-2-yl)piperidin-4-yl]cyclopropyl}ethyl)-1-methyl-1H-indazol-5-amine] | 10 to 50 nM
15 | CN1C(=O)Cc2cc(NCC[C@@H]3C[C@@H]3C3CCN(c4ncc(Cl)cn4)CC3)ccc21 [Ex 51, 5-[(2-{(1S,2S)-2-[1-(5-chloropyrimidin-2-yl)piperidin-4-yl]cyclopropyl}ethyl)amino]-1-methyl-1,3-dihydro-2H-indol-2-one] | < 10 nM

Next, values leading:

Row | EC50 | SMILES
16 | 10 to 50 nM | Clc1cnc(N2CCC([C@@H]3C[C@H]3CCNc3ccc(-n4cncn4)nc3)CC2)nc1 (single isomer, unassigned) [Ex 62, trans N-(2-{2-[1-(5-chloropyrimidin-2-yl)piperidin-4-yl]cyclopropyl}ethyl)-6-(1H-1,2,4-triazol-1-yl)pyridin-3-amine]
17 | < 10 nM | Clc1cnc(N2CCC([C@H]3C[C@H]3CCNc3ccc(-n4cnnn4)cn3)CC2)nc1 [Ex 24, N-(2-{(1S,2S)-2-[1-(5-chloropyrimidin-2-yl)piperidin-4-yl]cyclopropyl}ethyl)-5-(1H-tetrazol-1-yl)pyridin-2-amine]
18 | 10 to 50 nM | Clc1cnc(N2CCC([C@H]3C[C@H]3CCNc3cnc(-n4cnnn4)nc3)CC2)nc1 [Ex 26, N-(2-{(1S,2S)-2-[1-(5-chloropyrimidin-2-yl)piperidin-4-yl]cyclopropyl}ethyl)-2-(1H-tetrazol-1-yl)pyrimidin-5-amine]
19 | < 10 nM | Cc1nnn(-c2ccc(NCC[C@@H]3C[C@@H]3C3CCN(c4ncc(Cl)cn4)CC3)cn2)n1 [Ex 17, N-(2-{(1S,2S)-2-[1-(5-chloropyrimidin-2-yl)piperidin-4-yl]cyclopropyl}ethyl)-6-(5-methyl-2H-tetrazol-2-yl)pyridin-3-amine]
20 | < 10 nM | Clc1cnc(N2CCC([C@H]3C[C@H]3CCNc3ccc(-n4ccnn4)cn3)CC2)nc1 [Ex 8, N-(2-{(1S,2S)-2-[1-(5-chloropyrimidin-2-yl)piperidin-4-yl]cyclopropyl}ethyl)-5-(1H-1,2,3-triazol-1-yl)pyridin-2-amine]
21 | < 10 nM | O=C1c2ccc(NCC[C@@H]3C[C@@H]3C3CCN(c4ncc(Cl)cn4)CC3)cc2CN1C1CC1 [Ex 46, 5-[(2-{(1S,2S)-2-[1-(5-chloropyrimidin-2-yl)piperidin-4-yl]cyclopropyl}ethyl)amino]-2-cyclopropylisoindolin-1-one]
22 | < 10 nM | Clc1cnc(N2CCC([C@H]3C[C@H]3CCNc3ccc(-n4cnnc4)cc3)CC2)nc1 [Ex 25, N-(2-{(1S,2S)-2-[1-(5-chloropyrimidin-2-yl)piperidin-4-yl]cyclopropyl}ethyl)-4-(4H-1,2,4-triazol-4-yl)aniline]
23 | < 10 nM | Clc1cnc(N2CCC([C@H]3C[C@H]3CCNc3ccc(-c4ccn[nH]4)cc3)CC2)nc1 [Ex 12, N-(2-{(1S,2S)-2-[1-(5-chloropyrimidin-2-yl)piperidin-4-yl]cyclopropyl}ethyl)-4-(1H-pyrazol-5-yl)aniline]
24 | < 10 nM | Clc1cnc(N2CCC([C@H]3C[C@H]3CCNc3ccc(-n4cncn4)cc3)CC2)nc1 [Ex 11, N-(2-{(1S,2S)-2-[1-(5-chloropyrimidin-2-yl)piperidin-4-yl]cyclopropyl}ethyl)-4-(1H-1,2,4-triazol-1-yl)aniline]
25 | < 10 nM | Clc1cnc(N2CCC([C@H]3C[C@H]3CCNc3ccc4cn[nH]c4c3)CC2)nc1 [Ex 57, N-(2-{(1S,2S)-2-[1-(5-chloropyrimidin-2-yl)piperidin-4-yl]cyclopropyl}ethyl)-1H-indazol-6-amine]
26 | 50 to 200 nM | CS(=O)(=O)c1ccc(NCC[C@@H]2C[C@H]2C2CCN(c3ncc(Cl)cn3)CC2)cc1 (single isomer, unassigned) [Ex 60, trans N-(2-{2-[1-(5-chloropyrimidin-2-yl)piperidin-4-yl]cyclopropyl}ethyl)-4-(methylsulfonyl)aniline]
27 | 50 to 200 nM | CS(=O)(=O)c1ccc(NCC[C@@H]2C[C@H]2C2CCN(c3ncc(Cl)cn3)CC2)cc1 (single isomer, unassigned) [Ex 58, trans-N-(2-{2-[1-(5-chloropyrimidin-2-yl)piperidin-4-yl]cyclopropyl}ethyl)-4-(methylsulfonyl)aniline]
